We go through 12 molecules from the OPERA property sets (Mansouri et al. 2018).

Values after ≈ are worked out from the molar mass of the structure shown.

By logP is commonly meant a log measure of how a compound divides between an organic and an aqueous phase. The low end stands for a more hydrophilic compound, the high end for a more lipophilic compound. What is called solubility is how much of the substance goes into solution per volume. Read a high solubility as much dissolved substance.

For the data set the following is noted: for solubility: 25 °C.

For `O=Cc1cc(Br)ccc1Br`, the logP was 3.35 and the solubility was found to be 0.158 mM (≈ 41.8 µg/mL).
The matching figures for `COc1ccc(OC)c(C=O)c1`: 1.91 and 4.78 mM (≈ 795 µg/mL).
Molecule `CCOc1ccc(C=O)cc1OC` came in with a logP of 1.63.
`O=Cc1ccc(O)c(Br)c1` showed a logP of 1.83 and a solubility of 6.62 mM (≈ 1330 µg/mL).
As to `COc1cc(C=O)cc(OC)c1OC`, the logP turned out to be 1.39.
The same measure, in the same setting: the figure for `CC(C)OC(=O)COc1ccc(C=O)cc1` is 1.88; for `O=Cc1ccc(O)c(O)c1` it is 1.09.
As to `O=Cc1cccc(O)c1`, the logP turned out to be 1.29.
The molecule `COc1ccc(C=O)cc1OC` registered a solubility of 38 mM (≈ 6320 µg/mL). This lies in the millimolar range.
As for `O=Cc1ccc(O)cc1`, the solubility is 106 mM (≈ 12900 µg/mL).
`O=Cc1cc(O)cc(Br)c1` had a logP of 2.5 and a solubility of 0.562 mM (≈ 113 µg/mL).
On the same counts, the results for `O=Cc1cc(O)ccc1O` are 0.54 and 99.9 mM (≈ 13800 µg/mL).
